Laboratory results published in patent US20230097603A1, “NICOTINAMIDE MONONUCLEOTIDE DERIVATIVES FOR THE TREATMENT OF ARRHYTHMIA” (NUVAMID SA, priority 2020, published 2023).
“Also recorded” adds a separate entry of the source.

Key:
[1] = test system: ischaemia-reperfusion rat; assay: Arrhythmia induced by ischaemia-reperfusion in anaesthetised rats; assay type: in vivo; details: for ventricular fibrillation during the ischaemia (effect in words) / ventricular tachycardia during the ischaemia (effect in words) / incidence of ventricular tachycardia during reperfusion (effect in words) / duration of ventricular tachycardia during reperfusion (effect in words) / ventricular fibrillation during reperfusion (effect in words) / mortality during the reperfusion period (effect in words): iv; for ventricular fibrillation during the ischaemia (effect in words) / ventricular tachycardia during the ischaemia (effect in words): I-C 185 mg/kg 30 min before, cariporide 0.3 mg/kg 5 min before ischaemia; for incidence of ventricular tachycardia during reperfusion (effect in words) / duration of ventricular tachycardia during reperfusion (effect in words) / ventricular fibrillation during reperfusion (effect in words) / mortality during the reperfusion period (effect in words): I-C 185 mg/kg, cariporide 0.3 mg/kg; for duration of ventricular tachycardia during reperfusion (effect in words) / ventricular fibrillation during reperfusion (effect in words): vs carrier; for mortality during the reperfusion period (effect in words): carrier group 25% death
Protocol: Arrhythmias were obtained in an acute model of ischaemia-reperfusion in rats.
The rats were first anaesthetised, then intubated and mechanically ventilated, before being prepared for surgery.
Catheters were then placed in the carotid artery in order to measure the arterial pressure and in the caudal vein for the perfusion of drugs. The arterial catheter consists in a catheter filled with fluid which sends the pressure to a transducer located nearby. The mean arterial pressure is calculated electronically and recorded continuously.
A three-lead electrocardiogram (ECG) was recorded throughout the procedure by means of needle electrodes attached to the limbs.
The modifications to the ECG, mean arterial pressure (MAP) and the heart rate were measured before and during the occlusion-reperfusion period. The definitions of the arrhythmias are based on those described in the Lambeth conventions (Walker and al., The Lambeth conventions: guidelines for the study of arrhythmias in ischaemia infarction, and reperfusion, Cardiovascular Research, 1988, 22(7), 447-455). The ectopic activity has been categorized as a single ventricular premature beat (VPB), a ventricular tachycardia (VT, four or more consecutive VPBs) or a ventricular fibrillation (VF, inability to distinguish individual QRS complexes and to measure the rate). The arterial pressure traces were referred to in order to confirm which type of ectopic activity was produced, in particular to distinguish between polymorphic VT and VF. When the first is produced, the arterial pressure is generally still pulsatile whereas with VF, the arterial pressure falls rapidly towards zero and is no longer pulsatile. The VF can be sustained or can spontaneously return to a normal sinusoidal rhythm in rats. In all the experiments, the incidences of TV and VF as well as the duration of the ventricular tachycardia were noted.
The heart was then exposed by a left intercostal thoracotomy. After opening the pericardium, a 6.0 silk stitch was placed around the left coronary artery on a polypropylene tube in order to form a collar. The hearts were subjected to an ischaemia for 7 minutes by tightening the suture 5 minutes after the treatment. Finally, the collar occluder was released in order to allow the reperfusion of the myocardial tissue for 10 minutes. At the end of the reperfusion period, the rats were euthanised by cervical dislocation while still anaesthetised.
The means± the standard error on the mean are presented.
The statistical analysis was carried out using the GraphPad Prism 5 software. The Fisher test was used to analyse the differences between the incidences of arrhythmias, while the chi-squared test was used to compare the incidence of mortality. The Kruskall-Wallis test was used to analyse the differences between the duration of the tachycardia and the ventricular fibrillations and the difference in the number of ventricular fibrillations.
The rats were treated by the intravenous route with a saline solution, a compound of formula I-C at 185 mg/kg (30 minutes before the ischaemia) or cariporide at 0.3 mg/kg (5 minutes before the ischaemia). The animals were subjected to a 7-minute ischaemia and a 10-minute reperfusion. Throughout the experimental phase, the arterial pressure and ECG profiles were recorded continuously. Blood was sampled 5 minutes after the end of the reperfusion and the heart was weighed.

[2] = test system: arrhythmias induced by doxorubicin; assay: Arrhythmia induced by doxorubicin in mice, heart rate by ECG; assay type: in vivo; details: for heart rate 5 days after the injection of DOX (effect in words): vs DOX + carrier
Protocol: The goal of this study was to evaluate the effects of an i.p. administration of compounds I-C, I-J and I-K, at 180 mg/kg, on arrhythmias induced by doxorubicin. 76 male mice, 8 weeks old on arrival, were obtained from Janvier Labs, Le Genest St Isle, 53941 St Berthevin, France. Each animal was identified with an electronic chip. The powder of compounds I-C, I-J and I-K (180 mg/kg) was dissolved in the carrier (the solution was used at ambient temperature for a maximum of 1 day). […] Doxorubicin was prepared at 2 mg/mL and the administration volume was 10 mL/kg. The control group received an injection of saline solution. Each group comprises 14 to 24 mice. As indicated in the regulations relating to non-clinical laboratory studies, the groups of test and control animals have been kept under identical conditions. The envisaged duration of the study was 11 days. […] The treatment with compounds I-C, I-J and I-K was initiated after 5 days before the injection of DOX, once per day from Day 5 to Day 0. The mice were treated i.p with compounds I-C, I-J and I-K 30 minutes before the injection of DOX. The mice were treated i.p with compounds I-C, I-J and I-K during the duration of the experiment (J0 to J5) once per day. […] In particular, the heart rate was evaluated during the ECG: […]

infarction = details: ischaemia of at least 30 minutes and reperfusion of at least 60 minutes; cited from earlier work
[3] = DOX 20 mg/kg i.p. + compound 180 mg/kg i.p. once per day
[4] = 185 mg/kg iv 30 minutes before ischaemia, 7-minute ischaemia
[5] = 185 mg/kg iv, 10-minute reperfusion

SMILES	ventricular fibrillation during the ischaemia (effect in words) [1]	ventricular tachycardia during the ischaemia (effect in words) [1]	incidence of ventricular tachycardia during reperfusion (effect in words) ([1]; 10-minute reperfusion)	duration of ventricular tachycardia during reperfusion (effect in words) ([1]; 10-minute reperfusion)	ventricular fibrillation during reperfusion (effect in words) ([1]; 10-minute reperfusion)	mortality during the reperfusion period (effect in words) [1]	heart rate 5 days after the injection of DOX (effect in words) [2, 3]	further results
CC(C)c1ccc(C(=O)NC(=N)N)cc1S(C)(=O)=O [Cariporide, reference compound]	removed	removed	no beneficial effect	tendency to be shorter	removed	removed		
NC(=O)c1ccc[n+]([C@@H]2O[C@H](COP(=O)([O-])O)[C@@H](O)[C@H]2O)c1 [I-C]	remove the ventricular fibrillation	significantly reduce the incidence and duration	no effect	appeared to reduce the duration	tendency to reduce the incidence	removed mortality	increase in heart rates; also recorded: significantly attenuated	duration of ventricular tachycardia during the ischaemia [1, 4]: 0.2 ± 0.2 s; incidence of ventricular tachycardia during the ischaemia [1, 4]: approximately 9%; duration of ventricular fibrillation during reperfusion [1, 5]: 4.0±2.3 % of the duration of the reperfusion; incidence of ventricular fibrillation during reperfusion [1, 5]: approximately 55%; number of ventricular fibrillations during reperfusion [1, 5]: approximately one
NC(=O)c1ccc[n+]([C@@H]2O[C@H](COP(=O)([O-])OP(=O)([O-])OC[C@H]3O[C@H]([n+]4cccc(C(N)=O)c4)[C@H](O)[C@@H]3O)[C@@H](O)[C@H]2O)c1 [I-J]							increase in heart rates; also recorded: significantly attenuated	heart rate 5 days after the injection of DOX [2, 3]: 470.1±18.8 bpm
NC(=O)c1ccc[n+]([C@H]2O[C@H](COP(=O)([O-])OP(=O)([O-])OC[C@H]3O[C@H]([n+]4cccc(C(N)=O)c4)[C@H](O)[C@@H]3O)[C@@H](O)[C@H]2O)c1 [I-K]							increase in heart rates; also recorded: significantly attenuated	
NC(=O)c1ccc[n+]([C@@H]2O[C@H](COP(=O)([O-])O)[C@@H](O)[C@H]2O)c1 [NMN, Nicotinamide Mononucleotide]								protective effect against infarction (infarction): protects the heart
COc1cccc2c1C(=O)c1c(O)c3c(c(O)c1C2=O)C[C@@](O)(C(=O)CO)C[C@@H]3O[C@H]1C[C@H](N)[C@H](O)[C@H](C)O1 [doxorubicin, reference compound]								heart rate 5 days after the injection of DOX ([2]; DOX 20 mg/kg i.p. + carrier, control mice 525.6±19.8 bpm): 365.1±23.9 bpm
